Experimental data reported in ChEMBL document CHEMBL1146665 (Bioorg Med Chem Lett, 2004).

Columns and labels:
[1] = target: T1, Melatonin receptor type 1B (Homo sapiens, UniProt P49286); assay: Binding affinity towards human melatonin receptor type 1B
T1 sequence (P49286 whole entry): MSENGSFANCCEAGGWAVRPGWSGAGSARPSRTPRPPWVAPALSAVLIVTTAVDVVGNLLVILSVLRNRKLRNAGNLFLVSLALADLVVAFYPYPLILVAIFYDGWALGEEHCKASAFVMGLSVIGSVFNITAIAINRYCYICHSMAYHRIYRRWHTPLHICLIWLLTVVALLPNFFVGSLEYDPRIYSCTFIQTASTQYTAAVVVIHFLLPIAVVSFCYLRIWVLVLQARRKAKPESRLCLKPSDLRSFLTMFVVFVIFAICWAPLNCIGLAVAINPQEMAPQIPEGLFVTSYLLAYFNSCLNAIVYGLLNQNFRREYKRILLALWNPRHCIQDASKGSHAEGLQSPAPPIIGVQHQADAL

[2] = target: Melatonin receptor type 1A (Homo sapiens, UniProt P48039); assay: Binding affinity towards human melatonin receptor type 1A
Chain of Melatonin receptor type 1A (P48039 whole entry): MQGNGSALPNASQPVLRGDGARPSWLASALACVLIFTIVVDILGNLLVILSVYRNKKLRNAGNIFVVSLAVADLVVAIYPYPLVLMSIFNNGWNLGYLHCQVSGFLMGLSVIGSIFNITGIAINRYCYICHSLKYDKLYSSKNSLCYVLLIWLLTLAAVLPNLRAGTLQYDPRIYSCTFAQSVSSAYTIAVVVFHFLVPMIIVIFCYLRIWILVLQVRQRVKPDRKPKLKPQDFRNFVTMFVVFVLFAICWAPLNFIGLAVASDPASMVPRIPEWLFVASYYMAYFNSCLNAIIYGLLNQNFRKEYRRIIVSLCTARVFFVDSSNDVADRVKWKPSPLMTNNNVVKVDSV

[3] = tested on: NIH3T3; assay: Inhibition of forskolin-stimulated cAMP accumulation in NIH3T3 cells expressing MT2 receptor; assay type: functional, cell-based; settings: Mus musculus

Ki [1] [nM]	Ki [2] [nM]	Structure (SMILES)	EC50 [3] [nM]
0.1	1.1	CCCC(=O)Nc1ccc(N(C)c2cccc(OC)c2)cc1	
108	> 500	CCCC(=O)Nc1ccc(Oc2ccccc2OC)cc1	
0.39	31	CCCC(=O)Nc1ccc(Nc2cccc(OC)c2)cc1	
0.75	63	CCCC(=O)Nc1ccc(Oc2cccc(OC)c2)cc1	1.07
	> 500	CCCCC(=O)Nc1ccc(Oc2cccc(OC)c2)cc1	
0.68	18	CCCC(=O)Nc1ccc(Oc2cccc3c2CCO3)cc1	
0.19	29	CCCC(=O)Nc1ccc(Sc2cccc(OC)c2)cc1	
0.49	36	CCCC(=O)Nc1ccc(N(C)c2cccc3c2CCO3)cc1	
0.12	10.9	CCCC(=O)Nc1ccc(Cc2cccc(OC)c2)cc1	
0.78	92	CCCC(=O)Nc1ccc(Cc2cccc3occc23)cc1	
39	> 500	CCCC(=O)Nc1ccc(Nc2cccc3c2CCO3)cc1	
4.7	92	CCCC(=O)Nc1ccc(Oc2cccc3c2OCCO3)cc1	
> 400	> 500	CCCC(=O)Nc1ccc(Oc2ccc(OC)cc2)cc1	
0.71	41	CCCC(=O)Nc1ccc(Cc2cccc3c2CCO3)cc1	

Further lines, the compound ahead of its results:

Structure (SMILES)	Ki [1] [nM]	Ki [2] [nM]	EC50 [3] [nM]
CCC(=O)Nc1ccc(Oc2cccc(OC)c2)cc1	6.8	300	
COc1cccc(Nc2ccc(NC(C)=O)cc2)c1	4.2	84	
CCCC(=O)Nc1cccc(Oc2cccc(OC)c2)c1	26.8	> 500	
CCC(=O)Nc1ccc(Nc2cccc(OC)c2)cc1	1.8	61	
CCOC(=O)Nc1ccc(N(C)c2cccc(OC)c2)cc1	7.2	34	
C/C=C/C(=O)Nc1ccc(Oc2cccc(OC)c2)cc1	2.1	98	
COc1cccc(N(C)c2ccc(NC(=O)C3CC3)cc2)c1	4.8	12	
CCCC(=O)Nc1ccc(S(=O)(=O)c2cccc(OC)c2)cc1	10	> 500	
COCC(=O)Nc1ccc(Oc2cccc(OC)c2)cc1	5.9	180	
COc1cccc(Oc2ccc(NC(=O)C3CC3)cc2)c1	13	99	
COc1cccc(Oc2ccc(NC(=O)C(C)C)cc2)c1	122	> 500	
COc1cccc(Oc2ccc(NC(=O)CC(C)C)cc2)c1	15	> 500	
COc1cccc(Nc2ccc(NC(=O)C3CC3)cc2)c1	64	61	
CCNC(=O)Nc1ccc(Oc2cccc(OC)c2)cc1	250	> 500	
CCC(=O)Nc1ccc(N(C)c2cccc(OC)c2)cc1	0.17	1	
COc1cccc(Nc2ccc(NC(=O)C(C)C)cc2)c1	84	> 500	
C#CCC(=O)Nc1ccc(Oc2cccc(OC)c2)cc1	110	> 500	
CCOC(=O)Nc1ccc(Nc2cccc(OC)c2)cc1	150	> 500	
COc1cccc(N(C)c2ccc(NC(=O)C(C)C)cc2)c1	5.5	106	
COc1cccc(Oc2ccc(NC(C)=O)cc2)c1	4.1	84	
COc1cccc(N(C)c2ccc(NC(C)=O)cc2)c1	0.23	0.05	
CCCC(=O)Nc1ccc(C(=O)c2cccc(OC)c2)cc1	33	> 500	
CCCC(=O)Nc1ccccc1Oc1cccc(OC)c1	130	> 500	
